Legend:
Assay type in all cases: cell-based
HL-60(TB) = assay: NCI60 five-dose screen; conditions: Homo sapiens, HL-60
A549/ATCC = assay: NCI60 five-dose screen; conditions: Homo sapiens, A549
EKVX = assay: NCI60 five-dose screen; conditions: Homo sapiens
HOP-62 = assay: NCI60 five-dose screen; conditions: Homo sapiens, HOP-62
NCI-H23 [1] = assay: NCI60 five-dose screen; conditions: Homo sapiens, NCI-H23
HCT-15 = assay: NCI60 five-dose screen; conditions: Homo sapiens, HCT-15
KM12 = assay: NCI60 five-dose screen; conditions: Homo sapiens, KM12
SF-539 = assay: NCI60 five-dose screen; conditions: Homo sapiens, SF-539
SNB-19 [2] = assay: NCI60 five-dose screen; conditions: Homo sapiens, SNB-19
LOX IMVI = assay: NCI60 five-dose screen; conditions: Homo sapiens
MALME-3M [3] = assay: NCI60 five-dose screen; conditions: Homo sapiens, Malme-3M
SK-MEL-28 [4] = assay: NCI60 five-dose screen; conditions: Homo sapiens, SK-MEL-28
SK-MEL-5 [5] = assay: NCI60 five-dose screen; conditions: Homo sapiens, SK-MEL-5
UACC-257 = assay: NCI60 five-dose screen; conditions: Homo sapiens, UACC-257
OVCAR-3 = assay: NCI60 five-dose screen; conditions: Homo sapiens, OVCAR-3
OVCAR-8 [6] = assay: NCI60 five-dose screen; conditions: Homo sapiens, OVCAR-8
MCF7 [7] = assay: NCI60 five-dose screen; conditions: Homo sapiens, MCF7
T-47D = assay: NCI60 five-dose screen; conditions: Homo sapiens, T47D
MDA-MB-468 = assay: NCI60 five-dose screen; conditions: Homo sapiens, MDA-MB-468
Leukemia panel = assay: NCI60 five-dose screen, panel mean; conditions: Homo sapiens, read-out: Mean GI50
Ovarian Cancer panel = assay: NCI60 five-dose screen, panel mean; conditions: Homo sapiens, read-out: Mean GI50
Renal Cancer panel = assay: NCI60 five-dose screen, panel mean; conditions: Homo sapiens, read-out: Mean GI50
MOLT-4 = assay: NCI60 one-dose screen; conditions: Homo sapiens, MOLT-4, read-out: Growth percent
RPMI-8226 = assay: NCI60 one-dose screen; conditions: Homo sapiens, RPMI-8226, read-out: Growth percent
SR = assay: NCI60 one-dose screen; conditions: Homo sapiens, read-out: Growth percent
HOP-92 = assay: NCI60 one-dose screen; conditions: Homo sapiens, HOP-92, read-out: Growth percent
NCI-H23 [8] = assay: NCI60 one-dose screen; conditions: Homo sapiens, NCI-H23, read-out: Growth percent
NCI-H322M = assay: NCI60 one-dose screen; conditions: Homo sapiens, read-out: Growth percent
NCI-H460 = assay: NCI60 one-dose screen; conditions: Homo sapiens, NCI-H460, read-out: Growth percent
COLO 205 = assay: NCI60 one-dose screen; conditions: Homo sapiens, COLO 205, read-out: Growth percent
SF-268 = assay: NCI60 one-dose screen; conditions: Homo sapiens, SF-268, read-out: Growth percent
SF-295 = assay: NCI60 one-dose screen; conditions: Homo sapiens, SF-295, read-out: Growth percent
SNB-19 [9] = assay: NCI60 one-dose screen; conditions: Homo sapiens, SNB-19, read-out: Growth percent
MALME-3M [10] = assay: NCI60 one-dose screen; conditions: Homo sapiens, Malme-3M, read-out: Growth percent
M14 = assay: NCI60 one-dose screen; conditions: Homo sapiens, M14, read-out: Growth percent
MDA-MB-435 = assay: NCI60 one-dose screen; conditions: Homo sapiens, MDA-MB-435, read-out: Growth percent
SK-MEL-2 = assay: NCI60 one-dose screen; conditions: Homo sapiens, SK-MEL-2, read-out: Growth percent
SK-MEL-28 [11] = assay: NCI60 one-dose screen; conditions: Homo sapiens, SK-MEL-28, read-out: Growth percent
SK-MEL-5 [12] = assay: NCI60 one-dose screen; conditions: Homo sapiens, SK-MEL-5, read-out: Growth percent
UACC-62 = assay: NCI60 one-dose screen; conditions: Homo sapiens, UACC-62, read-out: Growth percent
IGROV1 = assay: NCI60 one-dose screen; conditions: Homo sapiens, IGROV-1, read-out: Growth percent
OVCAR-8 [13] = assay: NCI60 one-dose screen; conditions: Homo sapiens, OVCAR-8, read-out: Growth percent
786-0 = assay: NCI60 one-dose screen; conditions: Homo sapiens, 786-0, read-out: Growth percent
SN12C = assay: NCI60 one-dose screen; conditions: Homo sapiens, read-out: Growth percent
MCF7 [14] = assay: NCI60 one-dose screen; conditions: Homo sapiens, MCF7, read-out: Growth percent
HS 578T = assay: NCI60 one-dose screen; conditions: Homo sapiens, Hs-578T, read-out: Growth percent

`CC[C@]12C=CCN3CC[C@@]4(c5ccc(OC)cc5N(C)[C@H]4[C@@](O)(C(=O)OC)[C@@H]1OC(=O)CCC[P+](c1ccccc1)(c1ccccc1)c1ccccc1OC)[C@@H]32` [9f] was tested. Which GI50 (HL-60(TB)) did it give?
The GI50 was 170 nM.

What about the GI50 (A549/ATCC) of the same molecule?
The GI50 was 945 nM.

What about the GI50 (EKVX) of the same molecule?
Its GI50 is 1220 nM.

And the GI50 (HOP-62)?
Its GI50 is 2160 nM.

What about the GI50 (NCI-H23 [1]) of the same molecule?
Its GI50 is 413 nM.

And the GI50 (HCT-15)?
The GI50 was 9070 nM.

What about the GI50 (KM12) of the same molecule?
Its GI50 is 331 nM.

What about the GI50 (SF-539) of the same molecule?
Its GI50 is 434 nM.

And the GI50 (SNB-19 [2])?
The GI50 was 313 nM.

And the GI50 (LOX IMVI)?
Its GI50 is 429 nM.

And the GI50 (MALME-3M [3])?
The GI50 was 295 nM.

And the GI50 (SK-MEL-28 [4])?
The GI50 was 506 nM.

And the GI50 (SK-MEL-5 [5])?
Its GI50 is 777 nM.

And the GI50 (UACC-257)?
The GI50 was 406 nM.

And the GI50 (OVCAR-3)?
The GI50 was 297 nM.

And the GI50 (OVCAR-8 [6])?
Its GI50 is 790 nM.

What about the GI50 (MCF7 [7]) of the same molecule?
Its GI50 is 288 nM.

And the GI50 (T-47D)?
Its GI50 is 302 nM.

And the GI50 (MDA-MB-468)?
The GI50 was 129 nM.

What about the GI50 (Leukemia panel) of the same molecule?
Its GI50 is 220 nM.

And the GI50 (Ovarian Cancer panel)?
Its GI50 is 4200 nM.

And the GI50 (Renal Cancer panel)?
Its GI50 is 3080 nM.

And the activity at 10 µM (MOLT-4)?
The activity at 10 µM was 21.2%.

And the activity at 10 µM (RPMI-8226)?
The activity at 10 µM was -38%.

And the activity at 10 µM (SR)?
The activity at 10 µM was -7.49%.

And the activity at 10 µM (HOP-92)?
Its activity at 10 µM is -58.4%.

And the activity at 10 µM (NCI-H23 [8])?
The activity at 10 µM was -57.8%.

And the activity at 10 µM (NCI-H322M)?
The activity at 10 µM was 25.9%.

What about the activity at 10 µM (NCI-H460) of the same molecule?
The activity at 10 µM was -26.9%.

What about the activity at 10 µM (COLO 205) of the same molecule?
Its activity at 10 µM is -90.7%.

What about the activity at 10 µM (SF-268) of the same molecule?
The activity at 10 µM was -76.1%.

What about the activity at 10 µM (SF-295) of the same molecule?
The activity at 10 µM was -42.3%.

And the activity at 10 µM (SNB-19 [9])?
The activity at 10 µM was -95.2%.

What about the activity at 10 µM (MALME-3M [10]) of the same molecule?
Its activity at 10 µM is -96.7%.

And the activity at 10 µM (M14)?
Its activity at 10 µM is -82.9%.

What about the activity at 10 µM (MDA-MB-435) of the same molecule?
Its activity at 10 µM is -73.7%.

And the activity at 10 µM (SK-MEL-2)?
Its activity at 10 µM is -98%.

And the activity at 10 µM (SK-MEL-28 [11])?
Its activity at 10 µM is -63.3%.

What about the activity at 10 µM (SK-MEL-5 [12]) of the same molecule?
Its activity at 10 µM is -98.4%.

What about the activity at 10 µM (UACC-62) of the same molecule?
Its activity at 10 µM is -73.2%.

What about the activity at 10 µM (IGROV1) of the same molecule?
The activity at 10 µM was -43.2%.

And the activity at 10 µM (OVCAR-8 [13])?
The activity at 10 µM was 6.9%.

And the activity at 10 µM (786-0)?
The activity at 10 µM was -74.1%.

And the activity at 10 µM (SN12C)?
The activity at 10 µM was -80.6%.

And the activity at 10 µM (MCF7 [14])?
The activity at 10 µM was -68.1%.

What about the activity at 10 µM (HS 578T) of the same molecule?
The activity at 10 µM was -47.4%.
